Target: human APJ receptor (Homo sapiens (Human), UniProt P35414)
Assay: biochemical
Type: biochemical
Details: [35S]GTPγS binding, CHO membranes expressing human APJ receptor; read-out: Activity hAPJ SPA EC50 IP
In short: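 Membranes of a stable CHO line carrying human APJ (pFLAG-CMV-3) were used in a GTPγS binding format; buffer GDP, MgCl2 and NaCl were optimized, and plates were read after 90 min at RT.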

Sequence of human APJ receptor (P35414 whole entry): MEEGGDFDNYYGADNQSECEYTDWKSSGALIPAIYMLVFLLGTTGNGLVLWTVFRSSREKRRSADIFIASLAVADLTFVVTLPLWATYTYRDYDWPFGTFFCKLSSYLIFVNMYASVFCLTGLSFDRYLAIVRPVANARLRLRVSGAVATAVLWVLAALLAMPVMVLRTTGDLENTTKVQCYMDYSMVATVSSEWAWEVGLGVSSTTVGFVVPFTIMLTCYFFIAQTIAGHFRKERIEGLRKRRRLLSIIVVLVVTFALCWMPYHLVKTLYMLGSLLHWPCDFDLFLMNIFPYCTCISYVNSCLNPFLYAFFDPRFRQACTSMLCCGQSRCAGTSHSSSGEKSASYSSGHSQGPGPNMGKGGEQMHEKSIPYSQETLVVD

Row | Compound | EC50 [nM]
1 | COc1cnc([C@@H](C)[C@H](C)S(=O)(=O)Nc2nnc(-c3ccn(C)n3)n2-c2c(OC)cccc2OC)nc1 [Example 295.0, (2S,3R)-N-(4-(2,6-dimethoxyphenyl)-5-(1-methyl-1H-pyrazol-3-yl)-4H-1,2,4-triazol-3-yl)-3-(5-methoxy-2-pyrimidinyl)-2-butanesulfonamide] | 0.4
2 | O=S(=O)(CCc1ccc(Cl)cc1)Nc1nnc(-c2cccs2)n1-c1ccccc1C(F)(F)F [Example 357.0, 2-(4-Chlorophenyl)-N-(5-(thiophen-2-yl)-4-(2-(trifluoromethyl)phenyl)-4H-1,2,4-triazol-3-yl)ethanesulfonamide] | > 12500
3 | COc1cccc(OC)c1-n1c(NS(=O)(=O)[C@@H]2CCCN(c3ncc(F)cn3)C2)nnc1-c1ccn(C)n1 (single isomer, unassigned) [Example 261.0, (3R)-N-(4-(2,6-dimethoxyphenyl)-5-(1-methyl-1H-pyrazol-3-yl)-4H-1,2,4-triazol-3-yl)-1-(5-fluoro-2-pyrimidinyl)-3-piperidinesulfonamide or (3S)-N-(4-(2,6-dimethoxyphenyl)-5-(1-methyl-1H-pyrazol-3-yl)-4H-1,2,4-triazol-3-yl)-1-(5-fluoro-2-pyrimidinyl)-3-piperidinesulfonamide] | 190
4 | O=S(=O)(CCc1ccc(Cl)cc1)Nc1nnc(-c2ccc(F)s2)n1-c1ccccc1OC(F)F [Example 244.0, 2-(4-chlorophenyl)-N-(4-(2-(difluoromethoxy)phenyl)-5-(5-fluoro-2-thiophenyl)-4H-1,2,4-triazol-3-yl)ethanesulfonamide] | 21
5 | COc1cnc([C@H](C)[C@@H](C)S(=O)(=O)Nc2nnc(-c3ccn(C)n3)n2-c2c(OC)cccc2OC)cn1 [Example 301.0, (2R,3S)-N-(4-(2,6-dimethoxyphenyl)-5-(1-methyl-1H-pyrazol-3-yl)-4H-1,2,4-triazol-3-yl)-3-(5-methoxy-2-pyrazinyl)-2-butanesulfonamide] | 11
6 | COCC1(n2c(NS(=O)(=O)[C@@H](C)[C@@H](OC(C)C)c3ncc(C)cn3)nnc2-c2ccn(C)n2)CC1 [Example 462.0, (1S,2S)-N-(4-(1-(methoxymethyl)cyclopropyl)-5-(1-methyl-1H-pyrazol-3-yl)-4H-1,2,4-triazol-3-yl)-1-(5-methyl-2-pyrimidinyl)-1-(2-propanyloxy)-2-propanesulfonamide] | 4.1
7 | CCO[C@H](c1ncc(Cl)cn1)[C@H](C)S(=O)(=O)Nc1nnc(-c2ccn(CC)n2)n1-c1c(OC)cccc1OC [Example 394.0, (1R,2S)-1-(5-chloropyrimidin-2-yl)-N-(4-(2,6-dimethoxyphenyl)-5-(1-ethyl-1H-pyrazol-3-yl)-4H-1,2,4-triazol-3-yl)-1-ethoxypropane-2-sulfonamide] | 0.54
8 | (R)-N-(4-(2,6-dimethoxyphenyl)-5-(1,5-dimethyl-1H-pyrazol-3-yl)-4H-1,2,4-triazol-3-yl)-1-(5-fluoropyrimidin-2-yl)propane-2-sulfonamide and (S)-N-(4-(2,6-dimethoxyphenyl)-5-(1,5-dimethyl-1H-pyrazol-3-yl)-4H-1,2,4-triazol-3-yl)-1-(5-fluoropyrimidin-2-yl)propane-2-sulfonamide [Example 53.0] | 9.7
9 | COc1cccc(OC)c1-n1c(NS(=O)(=O)[C@@H](C)[C@H](OC)c2ncc(C)cn2)nnc1-c1cc(C)[nH]n1 [Example 333.0, (1R,2S)-N-(4-(2,6-dimethoxyphenyl)-5-(5-methyl-1H-pyrazol-3-yl)-4H-1,2,4-triazol-3-yl)-1-methoxy-1-(5-methyl-2-pyrimidinyl)-2-propanesulfonamide] | 1.5
10 | COc1ccc([C@@H](C)[C@H](C)S(=O)(=O)Nc2nnc(-c3ccn(C)n3)n2-c2c(OC)cccc2OC)nc1 [Example 459.0, (2S,3R)-N-(4-(2,6-dimethoxyphenyl)-5-(1-methyl-1H-pyrazol-3-yl)-4H-1,2,4-triazol-3-yl)-3-(5-methoxy-2-pyridinyl)-2-butanesulfonamide] | 0.33
11 | COc1ccccc1-n1c(NS(=O)(=O)Cc2ccc(Cl)cc2)nnc1-c1cccs1 [Example 385.0, 1-(4-Chlorophenyl)-N-(4-(2-methoxyphenyl)-5-(thiophen-2-yl)-4H-1,2,4-triazol-3-yl)methanesulfonamide] | > 12500
12 | CO[C@H](c1ncc(Cl)cn1)[C@H](C)S(=O)(=O)Nc1nnc(-c2noc3ccccc23)n1C1CC1 [Example 506.0, (1R,2S)-N-(5-(benzo[d]isoxazol-3-yl)-4-cyclopropyl-4H-1,2,4-triazol-3-yl)-1-(5-chloropyrimidin-2-yl)-1-methoxypropane-2-sulfonamide] | 260
13 | COc1cccc(OC)c1-n1c(NS(=O)(=O)CCc2ccc(Cl)cc2)nnc1-c1ncc(C)s1 [Example 143.0, 2-(4-chlorophenyl)-N-(4-(2,6-dimethoxyphenyl)-5-(5-methylthiazol-2-yl)-4H-1,2,4-triazol-3-yl)ethanesulfonamide] | 236
14 | O=S(=O)(CCc1ccccc1)Nc1nnc(-c2ccc(F)s2)n1-c1ccccc1OC(F)F [Example 246.0, N-(4-(2-(difluoromethoxy)phenyl)-5-(5-fluoro-2-thiophenyl)-4H-1,2,4-triazol-3-yl)-2-phenylethanesulfonamide] | 39
15 | COc1cccc(OC)c1-n1c(NS(=O)(=O)[C@@H](C)[C@@H](OC(C)C)c2ncc(F)cn2)nnc1-c1cnn2c1CCC2 [Example 482.0, (1S,2S)-N-(5-(5,6-dihydro-4H-pyrrolo[1,2-b]pyrazol-3-yl)-4-(2,6-dimethoxyphenyl)-4H-1,2,4-triazol-3-yl)-1-(5-fluoropyrimidin-2-yl)-1-isopropoxypropane-2-sulfonamide] | 0.38
16 | CCO[C@H](c1ncc(C)cn1)[C@H](C)S(=O)(=O)Nc1nnc(-c2ccn(C(F)F)n2)n1-c1c(OC)cccc1OC [Example 199.0, (1R,2S)-N-(5-(1-(difluoromethyl)-1H-pyrazol-3-yl)-4-(2,6-dimethoxyphenyl)-4H-1,2,4-triazol-3-yl)-1-ethoxy-1-(5-methyl-2-pyrimidinyl)-2-propanesulfonamide] | 0.26
17 | COc1cccc(OC)c1-n1c(NS(=O)(=O)CCc2ccc(Cl)cc2)nnc1-c1cnco1 [Example 138.0, 2-(4-chlorophenyl)-N-(4-(2,6-dimethoxyphenyl)-5-(oxazol-5-yl)-4H-1,2,4-triazol-3-yl)ethanesulfonamide] | 586
18 | COc1cncc(-c2nnc(NS(=O)(=O)[C@@H](C)Cc3ncc(F)cn3)n2-c2c(OC)cccc2OC)n1 (single isomer, unassigned) [Example 188.0, (2S)-N-(4-(2,6-dimethoxyphenyl)-5-(6-methoxy-2-pyrazinyl)-4H-1,2,4-triazol-3-yl)-1-(5-fluoro-2-pyrimidinyl)-2-propanesulfonamide or (2R)-N-(4-(2,6-dimethoxyphenyl)-5-(6-methoxy-2-pyrazinyl)-4H-1,2,4-triazol-3-yl)-1-(5-fluoro-2-pyrimidinyl)-2-propanesulfonamide] | 15

Reference: patent publication US11046680B1, “Heteroaryl-substituted triazoles as APJ receptor agonists” (priority 2016, dated 2021)
